Results as given in patent EP0918774B9, “ANDROGEN RECEPTOR MODULATOR COMPOUNDS AND METHODS” (LIGAND PHARMACEUTICALS INCORPORATED, priority 1996, dated 1997).
Like-named read-outs stand apart in the source and are kept apart here.

How the values were obtained:
[1] = target: T1, human AR (Homo sapiens, UniProt P10275); test: cell-based; type: cell-based; conditions: for AR Antagonist CV-1 Cells Efficacy (%): % of maximal inhibition, fixed DHT at EC50; for AR agonist/antagonist profile (in words): co-transfection assay, summary of Tables 1-2; for AR Agonist CV-1 Cells Efficacy (%): percent maximal response relative to reference agonist DHT
T1 construct: expressed in transfected cells; host or cells: CV-1 cells (African green monkey kidney fibroblasts), transient calcium phosphate transfection
T1 sequence (P10275 1-920): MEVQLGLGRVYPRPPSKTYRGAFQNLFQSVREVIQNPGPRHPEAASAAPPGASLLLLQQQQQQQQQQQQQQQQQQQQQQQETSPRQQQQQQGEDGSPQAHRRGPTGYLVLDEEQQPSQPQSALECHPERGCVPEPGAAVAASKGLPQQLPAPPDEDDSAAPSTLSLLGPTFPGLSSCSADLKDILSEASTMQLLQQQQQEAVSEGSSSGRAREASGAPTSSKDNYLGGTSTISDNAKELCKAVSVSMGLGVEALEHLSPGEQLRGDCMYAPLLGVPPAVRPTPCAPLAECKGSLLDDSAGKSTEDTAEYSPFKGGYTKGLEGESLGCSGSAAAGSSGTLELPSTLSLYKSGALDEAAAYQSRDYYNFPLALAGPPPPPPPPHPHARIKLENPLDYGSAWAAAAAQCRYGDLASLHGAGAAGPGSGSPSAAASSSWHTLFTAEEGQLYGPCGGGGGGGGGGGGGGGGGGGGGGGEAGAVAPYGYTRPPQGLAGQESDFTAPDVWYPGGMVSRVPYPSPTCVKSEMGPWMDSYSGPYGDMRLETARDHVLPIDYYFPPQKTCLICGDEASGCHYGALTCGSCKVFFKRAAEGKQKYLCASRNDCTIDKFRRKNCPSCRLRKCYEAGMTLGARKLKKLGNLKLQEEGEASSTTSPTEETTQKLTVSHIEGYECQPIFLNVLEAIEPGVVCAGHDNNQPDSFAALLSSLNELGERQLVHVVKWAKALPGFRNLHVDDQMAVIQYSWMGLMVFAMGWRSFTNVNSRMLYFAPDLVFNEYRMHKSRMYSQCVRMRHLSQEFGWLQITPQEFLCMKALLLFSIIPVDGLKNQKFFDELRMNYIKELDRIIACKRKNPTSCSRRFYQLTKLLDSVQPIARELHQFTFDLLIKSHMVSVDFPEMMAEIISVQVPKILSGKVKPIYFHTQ
Excerpt: The co-transfection assay provides a method for identifying functional agonists and partial agonists which mimic, or antagonists which inhibit, the effect of native hormones, and quantifying their activity for responsive IR proteins. In this regard, the co-transfection assay mimics an in vivo system in the laboratory. Importantly, activity in the co-transfection assay correlates very well with known in vivo activity, such that the co-transfection assay functions as a qualitative and quantitative predictor of a tested compounds in vivo pharmacology. See, e.g., T. Berger et al. 41 J. Steroid Biochem. Molec.
(§1) CV-1 cells (African green monkey kidney fibroblasts) were cultured in the presence of Dulbecco's Modified Eagle Medium (DMEM) supplemented with 10% charcoal resinstripped fetal bovine serum then transferred to 96-well microtiter plates one day prior to transfection.
The reporter plasmid, MTV-LUC, contains the cDNA for firefly luciferase (LUC) under control of the mouse mammary tumor virus (MTV) long terminal repeat, a conditional promoter containing an androgen response element. See e.g, Berger et al. supra. In addition, pRS-β-Gal, coding for constitutive expression of E. colβ-galactosidase (β-Gal), was included as an internal control for evaluation of transfection efficiency and compound toxicity.
(§2) Three to four replicates were used for each sample.
(§3) After 40 hours, the cells were washed with PBS, lysed with a Triton X-100-based buffer and assayed for LUC and β-Gal activities using a luminometer or spectrophotometer, respectively. For each replicate, the normalized response (NR) was calculated as: LUC response/β-Gal rate where β-Gal rate = β-Gal•1x10^-5/β-Gal incubation time.

[2] = target: T1, human AR; test: cell-based; type: binding
[3] = target: T2, PR (Homo sapiens, UniProt P06401); test: Co-transfection assay, PR agonist mode; type: cell-based; design: expressed in transfected cells; host or cells: CV-1 cells
T2 sequence (P06401 1-933): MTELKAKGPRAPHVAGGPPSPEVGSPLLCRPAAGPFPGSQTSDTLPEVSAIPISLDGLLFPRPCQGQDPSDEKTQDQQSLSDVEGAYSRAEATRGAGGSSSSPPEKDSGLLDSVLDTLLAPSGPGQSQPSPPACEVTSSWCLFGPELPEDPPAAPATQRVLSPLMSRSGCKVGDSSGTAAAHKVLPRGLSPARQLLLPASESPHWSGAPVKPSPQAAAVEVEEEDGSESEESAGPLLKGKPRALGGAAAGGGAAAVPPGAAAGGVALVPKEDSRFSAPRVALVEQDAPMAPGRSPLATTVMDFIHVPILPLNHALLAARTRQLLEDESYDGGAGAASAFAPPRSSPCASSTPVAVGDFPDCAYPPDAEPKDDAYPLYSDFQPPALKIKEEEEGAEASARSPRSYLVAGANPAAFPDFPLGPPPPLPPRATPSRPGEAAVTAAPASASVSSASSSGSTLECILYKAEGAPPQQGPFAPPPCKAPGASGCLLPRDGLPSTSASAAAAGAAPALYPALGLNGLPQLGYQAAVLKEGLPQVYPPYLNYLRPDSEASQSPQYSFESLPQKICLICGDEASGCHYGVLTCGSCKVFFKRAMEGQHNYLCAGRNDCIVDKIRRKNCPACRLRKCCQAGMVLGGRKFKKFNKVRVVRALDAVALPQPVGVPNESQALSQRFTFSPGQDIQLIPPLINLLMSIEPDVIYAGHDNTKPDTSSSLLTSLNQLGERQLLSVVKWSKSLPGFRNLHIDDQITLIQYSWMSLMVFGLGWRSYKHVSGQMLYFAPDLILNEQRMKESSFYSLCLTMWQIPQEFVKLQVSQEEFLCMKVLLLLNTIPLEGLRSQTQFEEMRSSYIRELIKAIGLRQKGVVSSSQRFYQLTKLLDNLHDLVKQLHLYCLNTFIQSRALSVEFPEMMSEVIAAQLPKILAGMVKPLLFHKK
Method: as §1, §2, §3

`CC1CC(C)(C)n2oc(=O)c3c4[nH]c(=O)cc(C(F)(F)F)c4cc1c32` (centres unmarked) [Compound 113, 1,10-[1,3-dihydro-3-oxo-(2,1-isoxazolyl)]-1,2,3,4-tetrahydro-2,2,4,10-tetramethyl-6-trifluoromethyl-8-pyridono[5,6-g]quinoline] was tested, and the “AR Antagonist CV-1 Cells Efficacy (%)” value ([1]; na = not active) was 48%, the “AR agonist/antagonist profile (in words)” value [1] was “mixed AR agonists/antagonists” and the “AR Agonist CV-1 Cells Efficacy (%)” value ([1]; na = not active) was 26%. It also gave a Ki [2] of 17 nM.
For `CCC1(CC)CCc2cc3c(C(F)(F)F)c(F)c(=O)[nH]c3cc2N1` [Compound 120, 2,2-Diethyl-7-fluoro-1,2,3,4-tetrahydro-6-trifluoromethyl-8-pyridono[5,6-g]quinoline], the IC50 [1] was 25 nM and the “AR Antagonist CV-1 Cells Efficacy (%)” value ([1]; na = not active) was 61%.
With `CC1(C)CCc2cc3c(C(F)F)c(F)c(=O)[nH]c3cc2N1` [Compound 106, 6-Difluoromethyl-7-fluoro-1,2,3,4-tetrahydro-2,2-dimethyl-8-pyridono[5,6-g]quinoline] the EC50 [1] was > 10000 nM, the IC50 [1] was 60 nM and the “AR Antagonist CV-1 Cells Efficacy (%)” value ([1]; na = not active) was 83%. The “AR Agonist CV-1 Cells Efficacy (%)” value ([1]; na = not active) was “na (not active (i.e. efficacy of <20 and potency of >10,000))”.
In the case of `Cc1c2c(cc3c(C(F)(F)F)c(F)c(=O)n(C)c13)C(C)CC(C)(C)N2` (centres unmarked) [Compound 116, 7-Fluoro-1,2,3,4-tetrahydro-2,2,4,9,10-pentamethyl-6-trifluoromethyl-8-pyridono[5,6-g]quinoline], the EC50 [1] is reported as > 10000 nM, the “AR Antagonist CV-1 Cells Efficacy (%)” value ([1]; na = not active) is reported as 20% and the “AR Agonist CV-1 Cells Efficacy (%)” value ([1]; na = not active) is reported as “na (not active (i.e. efficacy of <20 and potency of >10,000))”.
With `Cn1c(=O)c(F)c(C(F)(F)F)c2cc3c(cc21)N1CCCC1(C)CC3` (racemic) [Compound 104, (R/S)-3-Fluoro-6,7,7a,11-tetrahydro-1,7a-dimethyl-4-trifluoromethyl-2-pyridono[5.6-g]pyrrolidino[1,2-a]quinoline] the EC50 [3] was > 10000 nM, the EC50 [1] was > 10000 nM and the “AR Antagonist CV-1 Cells Efficacy (%)” value ([1]; na = not active) was 86%. The “AR Agonist CV-1 Cells Efficacy (%)” value ([1]; na = not active) was “na (not active (i.e. efficacy of <20 and potency of >10,000))”, the EC50 ([1]; read-out: AR Potency Agon, Table 2, na = not active) was > 10000 nM and the Ki [2] was 159 nM.
In the case of `CC1=CC(C)(C)Nc2cc3[nH]c(=O)c(F)c(C(F)(F)F)c3cc21` [Compound 111, 7-Fluoro-1,2-dihydro-2,2,4-trimethyl-6-trifluoromethyl-8-pyridono[5,6-g]quinoline], the “AR Antagonist CV-1 Cells Efficacy (%)” value ([1]; na = not active) is reported as 50%, the “AR agonist/antagonist profile (in words)” value [1] is reported as “mixed AR agonists/antagonists” and the “AR Agonist CV-1 Cells Efficacy (%)” value ([1]; na = not active) is reported as 20%. For the same molecule, the Ki [2] was 804 nM.
With `Cc1c2c(cc3c(C(F)(F)F)c(F)c(=O)[nH]c13)C(C)CC(C)(C)N2` (centres unmarked) [Compound 115, 7-Fluoro-1,2,3,4-tetrahydro-2,2,4,10-tetramethyl-6-trifluoromethyl-8-pyridono[5,6-g]quinoline] the EC50 [1] was > 10000 nM, the IC50 [1] was 101 nM and the “AR Antagonist CV-1 Cells Efficacy (%)” value ([1]; na = not active) was 88%. For the same molecule, the “AR Agonist CV-1 Cells Efficacy (%)” value ([1]; na = not active) was “na (not active (i.e. efficacy of <20 and potency of >10,000))”.
With `Cn1c(=O)c(F)c(C(F)(F)F)c2cc3c(cc21)NC(C)(C)CC3` [Compound 107, 7-Fluoro-1,2,3,4-tetrahydro-2,2,9-trimethyl-6-trifluoromethyl-8-pyridono[5,6-g]quinoline] the EC50 [1] was > 10000 nM, the IC50 [1] was 47 nM and the “AR Antagonist CV-1 Cells Efficacy (%)” value ([1]; na = not active) was 79%. For the same molecule, the “AR Agonist CV-1 Cells Efficacy (%)” value ([1]; na = not active) was “na (not active (i.e. efficacy of <20 and potency of >10,000))”.
With `Cc1c2c(cc3c(C(F)(F)F)c(F)c(=O)[nH]c13)C(C)CC(C)(C)N2C` (centres unmarked) [Compound 117, 7-Fluoro-1,2,3,4-tetrahydro-1,2,2,4,10-pentamethyl-6-trifuluoromethyl-8-pyridono[5,6-g]quinoline] the “AR Antagonist CV-1 Cells Efficacy (%)” value ([1]; na = not active) was 81%, the “AR Agonist CV-1 Cells Efficacy (%)” value ([1]; na = not active) was “na (not active (i.e. efficacy of <20 and potency of >10,000))” and the EC50 ([1]; read-out: AR Agonist CV-1 Cells Potency, agonist potency EC50, na = not active) was > 10000 nM.
For `CN1c2cc3c(cc2CCC1(C)C)c(C(F)(F)F)c(F)c(=O)n3C` [Compound 109, 7-Fluoro-1,2,3,4-tetrahydro-1,2,2,9-tetramethyl-6-trifluoromethyl-8-pyridono[5,6-g]quinoline], the EC50 [1] was > 10000 nM, the IC50 [1] was 12 nM and the “AR Antagonist CV-1 Cells Efficacy (%)” value ([1]; na = not active) was 86%. For the same molecule, the “AR agonist/antagonist profile (in words)” value [1] was “highly selective AR antagonists” and the “AR Agonist CV-1 Cells Efficacy (%)” value ([1]; na = not active) was “na (not active (i.e. efficacy of <20 and potency of >10,000))”.
`CC1CC(C)(C)Nc2cc3[nH]c(=O)c(F)c(C(F)(F)F)c3cc21` (centres unmarked) [Compound 112, 7-Fluoro-1,2,3,4-tetrahydro-2,2,4-trimethyl-6-trifluoromethyl-8-pyridono[5,6-g]quinoline] was tested, and the “AR Antagonist CV-1 Cells Efficacy (%)” value ([1]; na = not active) was 49% and the “AR agonist/antagonist profile (in words)” value [1] was “highly selective AR antagonists”.
With `CC1=CC(C)(C)Nc2c1cc1c(C(F)(F)F)c(F)c(=O)[nH]c1c2C` [Compound 114, 7-Fluoro-1,2-dihydro-2,2,4,10-tetramethyl-6-trifluoromethyl-8-pyridono[5,6-g]quinoline] the EC50 [1] was > 10000 nM, the “AR Antagonist CV-1 Cells Efficacy (%)” value ([1]; na = not active) was 90% and the “AR Agonist CV-1 Cells Efficacy (%)” value ([1]; na = not active) was “na (not active (i.e. efficacy of <20 and potency of >10,000))”.
